# Earlier results as cited in EP2535049A1 (Proyecto de Biomedicina Cima, S.L., priority 2011, dated 2012).
# Details: Kulkarni and Patil 2004; Forgue et al., 2006; cited from earlier work
smiles,measurement,value
CCCc1nc(C)c2c(=O)[nH]c(-c3cc(S(=O)(=O)N4CCN(CC)CC4)ccc3OCC)nn12 [vardenafil],half-life in blood serum,3.4 h
